Reference: the NIST ThermoML archive (doi:10.1021/je050503q)
± gives the expanded uncertainty stated by the source.

Test: xn = mol fraction of the nth substance listed
Conditions: Liquid

COCCOCCOCCOC [2,5,8,11-tetraoxadodecane] + FCC(F)(F)F
Conditions	mass density [kg/m3]
283.27 K, 1086 kPa, x2 = 0.9485	1245.33 ± 0.38
283.27 K, 2000 kPa, x2 = 0.9485	1248.44 ± 0.39
283.27 K, 3016 kPa, x2 = 0.9485	1251.83 ± 0.39
283.27 K, 4003 kPa, x2 = 0.9485	1255.03 ± 0.4
283.27 K, 5009 kPa, x2 = 0.9485	1258.22 ± 0.4
283.27 K, 6019 kPa, x2 = 0.9485	1261.33 ± 0.41
283.28 K, 1070 kPa, x2 = 0.9798	1255.94 ± 0.37
283.28 K, 1986 kPa, x2 = 0.9798	1259.56 ± 0.37
283.28 K, 2984 kPa, x2 = 0.9798	1263.39 ± 0.38
283.28 K, 4004 kPa, x2 = 0.9798	1267.2 ± 0.38
283.28 K, 4996 kPa, x2 = 0.9798	1270.8 ± 0.38
283.28 K, 5989 kPa, x2 = 0.9798	1274.3 ± 0.39
283.29 K, 1047 kPa, x2 = 0.9655	1251.56 ± 0.38
283.29 K, 1992 kPa, x2 = 0.9655	1255.06 ± 0.38
283.29 K, 2996 kPa, x2 = 0.9655	1258.69 ± 0.39
283.29 K, 3988 kPa, x2 = 0.9655	1262.16 ± 0.39
283.29 K, 4999 kPa, x2 = 0.9655	1265.62 ± 0.39
283.29 K, 5987 kPa, x2 = 0.9655	1268.91 ± 0.4
293.3 K, 1086 kPa, x2 = 0.9485	1215.38 ± 0.37
293.3 K, 2016 kPa, x2 = 0.9485	1219.06 ± 0.37
293.3 K, 2998 kPa, x2 = 0.9485	1222.84 ± 0.37
293.3 K, 3985 kPa, x2 = 0.9485	1226.51 ± 0.38
293.3 K, 5000 kPa, x2 = 0.9485	1230.18 ± 0.38
293.3 K, 6018 kPa, x2 = 0.9485	1233.75 ± 0.39
293.31 K, 1086 kPa, x2 = 0.9798	1222.61 ± 0.34
293.31 K, 2003 kPa, x2 = 0.9798	1226.87 ± 0.35
293.31 K, 2985 kPa, x2 = 0.9798	1231.29 ± 0.35
293.31 K, 4010 kPa, x2 = 0.9798	1235.72 ± 0.36
293.31 K, 4992 kPa, x2 = 0.9798	1239.84 ± 0.36
293.31 K, 6009 kPa, x2 = 0.9798	1243.96 ± 0.36
293.32 K, 1047 kPa, x2 = 0.9655	1219.81 ± 0.36
293.32 K, 2002 kPa, x2 = 0.9655	1223.94 ± 0.36
293.32 K, 2997 kPa, x2 = 0.9655	1228.11 ± 0.36
293.32 K, 3984 kPa, x2 = 0.9655	1232.11 ± 0.37
293.32 K, 5001 kPa, x2 = 0.9655	1236.1 ± 0.37
293.32 K, 5994 kPa, x2 = 0.9655	1239.88 ± 0.38
303.33 K, 1176 kPa, x2 = 0.9798	1187.73 ± 0.34
303.33 K, 1189 kPa, x2 = 0.9485	1184.28 ± 0.34
303.33 K, 1998 kPa, x2 = 0.9485	1188.03 ± 0.35
303.33 K, 2990 kPa, x2 = 0.9485	1192.49 ± 0.36
303.33 K, 3984 kPa, x2 = 0.9485	1196.79 ± 0.36
303.33 K, 5011 kPa, x2 = 0.9485	1201.05 ± 0.36
303.33 K, 5992 kPa, x2 = 0.9485	1205.02 ± 0.37
303.34 K, 2006 kPa, x2 = 0.9798	1192.33 ± 0.34
303.34 K, 3006 kPa, x2 = 0.9798	1197.65 ± 0.34
303.34 K, 4000 kPa, x2 = 0.9798	1202.73 ± 0.34
303.34 K, 4990 kPa, x2 = 0.9798	1207.56 ± 0.35
303.34 K, 6008 kPa, x2 = 0.9798	1212.35 ± 0.35
303.35 K, 1189 kPa, x2 = 0.9655	1186.88 ± 0.34
303.35 K, 2013 kPa, x2 = 0.9655	1191.11 ± 0.35
303.35 K, 2992 kPa, x2 = 0.9655	1195.95 ± 0.35
303.35 K, 4008 kPa, x2 = 0.9655	1200.76 ± 0.35
303.35 K, 4992 kPa, x2 = 0.9655	1205.25 ± 0.36
303.35 K, 5987 kPa, x2 = 0.9655	1209.62 ± 0.36
313.35 K, 1434 kPa, x2 = 0.9485	1152.06 ± 0.34
313.35 K, 1434 kPa, x2 = 0.9798	1151.46 ± 0.34
313.35 K, 2004 kPa, x2 = 0.9798	1155.29 ± 0.35
313.35 K, 2014 kPa, x2 = 0.9485	1155.26 ± 0.34
313.35 K, 2982 kPa, x2 = 0.9798	1161.59 ± 0.34
313.35 K, 2990 kPa, x2 = 0.9485	1160.47 ± 0.34
313.35 K, 3990 kPa, x2 = 0.9485	1165.56 ± 0.35
313.35 K, 4985 kPa, x2 = 0.9485	1170.41 ± 0.35
313.35 K, 4986 kPa, x2 = 0.9798	1173.51 ± 0.34
313.35 K, 5997 kPa, x2 = 0.9485	1175.14 ± 0.35
313.36 K, 1436 kPa, x2 = 0.9655	1152.44 ± 0.34
313.36 K, 3010 kPa, x2 = 0.9655	1161.91 ± 0.34
313.36 K, 3986 kPa, x2 = 0.9798	1167.71 ± 0.34
313.36 K, 5983 kPa, x2 = 0.9798	1179.03 ± 0.34
313.37 K, 2008 kPa, x2 = 0.9655	1155.97 ± 0.34
313.37 K, 4000 kPa, x2 = 0.9655	1167.49 ± 0.34
313.37 K, 5010 kPa, x2 = 0.9655	1172.9 ± 0.34
313.37 K, 5984 kPa, x2 = 0.9655	1177.91 ± 0.35
323.39 K, 1731 kPa, x2 = 0.9798	1112.96 ± 0.36
323.39 K, 1737 kPa, x2 = 0.9485	1118.26 ± 0.35
323.39 K, 1989 kPa, x2 = 0.9798	1115.09 ± 0.36
323.39 K, 1994 kPa, x2 = 0.9485	1119.99 ± 0.34
323.39 K, 3007 kPa, x2 = 0.9485	1126.53 ± 0.34
323.39 K, 3987 kPa, x2 = 0.9485	1132.49 ± 0.34
323.39 K, 4990 kPa, x2 = 0.9485	1138.29 ± 0.34
323.39 K, 5982 kPa, x2 = 0.9485	1143.72 ± 0.34
323.4 K, 3001 kPa, x2 = 0.9798	1123.14 ± 0.36
323.4 K, 4006 kPa, x2 = 0.9798	1130.6 ± 0.35
323.4 K, 4997 kPa, x2 = 0.9798	1137.51 ± 0.35
323.4 K, 5982 kPa, x2 = 0.9798	1144 ± 0.34
323.41 K, 1737 kPa, x2 = 0.9655	1116.04 ± 0.35
323.41 K, 1998 kPa, x2 = 0.9655	1118.03 ± 0.35
323.41 K, 3002 kPa, x2 = 0.9655	1125.33 ± 0.35
323.41 K, 4001 kPa, x2 = 0.9655	1132.15 ± 0.34
323.41 K, 4985 kPa, x2 = 0.9655	1138.48 ± 0.34
323.41 K, 6012 kPa, x2 = 0.9655	1144.72 ± 0.34
